Measurements reported in patent EP1126030A1, “THIOREDOXIN REDUCTASE II” (priority 1998, dated 2000).

Molecular target: T1, flag-tag fused TxRIIα protein (Homo sapiens, UniProt Q9NNW7)
T1 construct: made in house
Experiment: Inhibitor assay (DTNB assay of TxR activity)
Assay type: biochemical
Details: diluted series of inhibitor; 1 µM flag-tag fused TxRIIα protein, 1 mM NADPH, 10 mM DTNB, pH 7.2; absorbance at 412 nm at 25°C for 5 min (Figure 5)
Method: DTNB assay is a method in which TNB caused by the TxR activity from DTNB is measured by the absorbance of a thiol at 412 nm based on the following reaction formula. The purified tag fused TxRIIα protein (1 to 50 µl) was added to the assay buffer 1 to mess up to 1.0 ml. The absorbance at 412 nm was measured at 25°C for 5 min (Figure 3). DTNB + NADPH + H^+ 2TNB + NADP^+
100 mM potassium phosphate pH 7.0, 10 mM EDTA, 0.25 mM NADPH, 0.2 mg/ml bovine serum albumin (BSA), 1% ethanol, 1 mM DTNB
To compare an enzyme activity of the TxRIIs by the present invention, obtained as a recombinant, and an activity of the natural TxR, an effect of an inhibitor was observed. As an inhibitor for the TxR activity, 1-chloro-2, 4-dinitrobenzene (CDNB) and 13-cis-retinoic acid was used. For confirming the TxR activity, the DTNB assay was used.
The diluted series of the inhibitors was prepared with 0.2 ml of HE buffer (100 mM HEPES buffer pH 7.2, 5 mM EDTA) . The tag-fused TxRIIαprotein was prepared at 3 µM and 0.2 ml thereof was added thereto, then 0.2 ml of HE buffer containing 3 mM NADPH and 30 mM DTNB was added thereto. The reaction system of this solution is composed of 100 mM HEPES buffer pH 7.2, 5 mM EDTA, 1 µM flag-tag fused TxRIIα protein, 1 mM NADPH, and 10 mM DTNB. The […] was measured by absorbance of a thiol at 412 nm at 25°C for 5min.

T1 sequence (Q9NNW7 37-524): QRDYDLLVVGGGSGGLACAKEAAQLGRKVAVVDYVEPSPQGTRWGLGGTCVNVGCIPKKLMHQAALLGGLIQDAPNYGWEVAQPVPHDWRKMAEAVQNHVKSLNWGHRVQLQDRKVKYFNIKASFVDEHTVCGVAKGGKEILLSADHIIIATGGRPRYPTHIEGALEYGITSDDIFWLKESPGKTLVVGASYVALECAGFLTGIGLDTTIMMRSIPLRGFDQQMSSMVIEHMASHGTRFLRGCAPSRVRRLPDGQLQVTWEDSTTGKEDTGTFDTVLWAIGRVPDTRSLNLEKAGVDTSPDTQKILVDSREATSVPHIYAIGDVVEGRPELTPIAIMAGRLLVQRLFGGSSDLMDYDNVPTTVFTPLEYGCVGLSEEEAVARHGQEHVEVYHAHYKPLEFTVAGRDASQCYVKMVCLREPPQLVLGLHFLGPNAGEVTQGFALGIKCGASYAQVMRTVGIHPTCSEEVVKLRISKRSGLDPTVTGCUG

SMILES: CC1=C(/C=C/C(C)=C/C=C/C(C)=C\C(=O)O)C(C)(C)CCC1 [13-cis retinoic acid, 13-cis-retinoic acid]
- inhibition of the TxR activity of the purified flag-tag fused TxRIIα protein: effectively inhibited

SMILES: O=[N+]([O-])c1ccc(Cl)c([N+](=O)[O-])c1 [CDNB, 1-chloro-2,4-dinitrobenzene]
- inhibition of the TxR activity of the purified flag-tag fused TxRIIα protein: effectively inhibited
